Where two headings read alike, the source gives them in different places.
Key:
Assay type in all cases: in vivo
[1] = tested on: Venturia inaequalis (Apples); assay: Foliar fungal disease test on plants: Venturia inaequalis (Apples); settings: one or two days before inoculation
[2] = tested on: Phytophthora infestans (Tomatoes); settings: one or two days before inoculation
Septoria nodorum (Wheat) = assay: Foliar fungal disease test on plants: Septoria nodorum (Wheat); settings: one or two days before inoculation
[3] = tested on: Plasmopara viticola (Vines); assay: Foliar fungal disease test on plants: Plasmopara viticola (Vines); settings: one or two days before inoculation
[4] = tested on: Pyricularia oryzae (Rice); settings: one or two days before inoculation
[5] = tested on: Thanatephorus cucumeries (Rice); assay: Foliar fungal disease test on plants: Thanatephorus cucumeries (Rice); settings: one or two days before inoculation
[6] = tested on: Erysiphe graminis tritici (Wheat); assay: Foliar fungal disease test on plants: Erysiphe graminis tritici (Wheat); settings: plants inoculated 24 hours before treatment
[7] = tested on: Puccinia recondita (Wheat); assay: Foliar fungal disease test on plants: Puccinia recondita (Wheat); settings: plants inoculated with Puccinia recondita 48 hours before treatment
Method: The compounds were tested against a variety of foliar fungal diseases of plants. The technique employed was as follows.
The plants were grown in John Innes Potting Compost (No 1 or 2) in 4 cm diameter minipots. The test compounds were formulated either by bead milling with aqueous DISPERSOL T or as a solution in acetone or acetone/ethanol which was diluted to the required concentration immediately before use. The formulations (100 ppm active ingredient) were sprayed on to the foliage or applied to the roots of the plants in the soil. The sprays were applied to maximum retention and the root drenches to a final concentration equivalent to approximately 40 ppm a.i. in dry soil. TWEEN 20 was added to give a final concentration of 0.05% when the sprays were applied to cereals.
[…] An exception was the test on Erysiphe graminis in which the plants were inoculated 24 hours before treatment. Foliar pathogens were applied by spray as zoosporangial suspensions onto the leaves of test plants. After inoculation, the plants were put into an appropriate environment to allow infection to proceed and then incubated until the disease was ready for assessment. The period between inoculation and assessment varied from four to fourteen days according to the disease and environment.
The disease level present (i.e. leaf area covered by actively sporulating disease) on each of the treated plants was recorded using the following assessment scale:
Each assessment was then expressed as a percentage of the level of disease present on the untreated control plants. This calculated value is referred to as a POCO (Percentage of Control) value. An example of a typical calculation is as follows:
Disease level on untreated control=90
Disese level on treated plant=30 [formula]
This calculated POCO value is then rounded to the nearest of the values in the 9-point assessment scale shown above. In this particular example, the POCO value would be rounded to 30. If the calculated POCO falls exactly mid-way between two of the points, it is rounded to the lower of the two values.

[8] = 100 ppm a.i. foliar spray or root drench (approx. 40 ppm in dry soil)
[9] = 100 ppm a.i. foliar spray or root drench

Row | Compound | POCO (Percentage of Control) disease level, Venturia inaequalis (Apples) [1, 8] | POCO (Percentage of Control) disease level, Phytophthora infestans (Tomatoes) [2, 8] | POCO (Percentage of Control) disease level, Septoria nodorum (Wheat) (Septoria nodorum (Wheat); [8]) | POCO (Percentage of Control) disease level, Plasmopara viticola (Vines) [3, 8] | POCO (Percentage of Control) disease level, Pyricularia oryzae (Rice) [4, 8] | POCO (Percentage of Control) disease level, Thanatephorus cucumeries (Rice) [5, 8] | POCO (Percentage of Control) disease level, Erysiphe graminis tritici (Wheat) [6, 8] | POCO (Percentage of Control) disease level, Puccinia recondita (Wheat) [7, 9] | POCO (Percentage of Control) disease level, Venturia inaequalis (Apples) ([1]; 10 ppm foliar spray only) | POCO (Percentage of Control) disease level, Phytophthora infestans (Tomatoes) ([2]; 10 ppm foliar spray only) | POCO (Percentage of Control) disease level, Septoria nodorum (Wheat) (Septoria nodorum (Wheat); 10 ppm foliar spray only) | POCO (Percentage of Control) disease level, Plasmopara viticola (Vines) ([3]; 10 ppm foliar spray only) | POCO (Percentage of Control) disease level, Pyricularia oryzae (Rice) ([4]; 10 ppm foliar spray only) | POCO (Percentage of Control) disease level, Thanatephorus cucumeries (Rice) ([5]; 10 ppm foliar spray only) | POCO (Percentage of Control) disease level, Erysiphe graminis tritici (Wheat) ([6]; 10 ppm foliar spray only) | POCO (Percentage of Control) disease level, Puccinia recondita (Wheat) ([7]; 10 ppm foliar spray only)
1 | CCN(C(=O)OCc1ccccc1C(=COC)C(=O)OC)c1ccc(F)cc1F [24 (3)] | 0 (0 = 0% disease present) | 60 (60 = 30.1-60% disease present) | 0 (0 = 0% disease present) | 0 (0 = 0% disease present) | 10 (10 = 5.1-10% disease present) | 0 (0 = 0% disease present) | 0 (0 = 0% disease present) | 0+ (0 = 0% disease present) | – | – | – | – | – | – | – | –
2 | COC=C(C(=O)OC)c1ccccc1COC(=S)Oc1ccccc1 [5 (12)] | – | – | – | – | – | – | – | – | 0 (0 = 0% disease present) | 90 (90 and 94 = 60.1-100% disease present) | 90 (90 and 94 = 60.1-100% disease present) | 3 (3 = 1.1-3% disease present) | 60 (60 = 30.1-60% disease present) | 60 (60 = 30.1-60% disease present) | 60 (60 = 30.1-60% disease present) | 90+ (90 and 94 = 60.1-100% disease present)
3 | COC=C(C(=O)OC)c1ccccc1COC(=O)N(C)c1ccc(F)c(Cl)c1 [104 (2)] | 0 (0 = 0% disease present) | 10 (10 = 5.1-10% disease present) | 0 (0 = 0% disease present) | 0 (0 = 0% disease present) | 0 (0 = 0% disease present) | 0 (0 = 0% disease present) | 0 (0 = 0% disease present) | 0+ (0 = 0% disease present) | – | – | – | – | – | – | – | –
4 | COC=C(C(=O)OC)c1ccccc1COC(=O)N(C)c1ccccc1SC [21 (2)] | – | – | – | – | – | – | – | – | 60 (60 = 30.1-60% disease present) | 90 (90 and 94 = 60.1-100% disease present) | 60 (60 = 30.1-60% disease present) | 0 (0 = 0% disease present) | 30 (30 = 20.1-30% disease present) | 90 (90 and 94 = 60.1-100% disease present) | 90 (90 and 94 = 60.1-100% disease present) | 90+ (90 and 94 = 60.1-100% disease present)
5 | CO/C=C(/C(=O)OC)c1ccccc1COC(=O)NN1CCOCC1 [3 (133), (E)-methyl 3-methoxy-2-[2-(morpholinocarbamoyloxymethyl)phenyl]propenoate] | 60 (60 = 30.1-60% disease present) | 90 (90 and 94 = 60.1-100% disease present) | 90 (90 and 94 = 60.1-100% disease present) | 90 (90 and 94 = 60.1-100% disease present) | 90 (90 and 94 = 60.1-100% disease present) | 90 (90 and 94 = 60.1-100% disease present) | 90 (90 and 94 = 60.1-100% disease present) | 90+ (90 and 94 = 60.1-100% disease present) | – | – | – | – | – | – | – | –
6 | CCN(C(=O)OCc1ccccc1C(=COC)C(=O)OC)c1ccc(F)c([N+](=O)[O-])c1 [105 (3)] | 0 (0 = 0% disease present) | 0 (0 = 0% disease present) | 90 (90 and 94 = 60.1-100% disease present) | 0 (0 = 0% disease present) | 60 (60 = 30.1-60% disease present) | 20 (20 and 24 = 10.1-20% disease present) | 90 (90 and 94 = 60.1-100% disease present) | 90+ (90 and 94 = 60.1-100% disease present) | – | – | – | – | – | – | – | –
7 | C#CCN(C(=O)OCc1ccccc1C(=COC)C(=O)OC)c1ccccc1OC [16 (15)] | 1 (1 = 0.1-1% disease present) | 5 (5 = 3.1-5% disease present) | 10 (10 = 5.1-10% disease present) | 0 (0 = 0% disease present) | 0 (0 = 0% disease present) | 0 (0 = 0% disease present) | 0 (0 = 0% disease present) | 60+ (60 = 30.1-60% disease present) | – | – | – | – | – | – | – | –
8 | CCN(C(=O)OCc1ccccc1C(=COC)C(=O)OC)c1cc(F)ccc1F [27 (3)] | 0 (0 = 0% disease present) | 20 (20 and 24 = 10.1-20% disease present) | 30 (30 = 20.1-30% disease present) | 0 (0 = 0% disease present) | 0 (0 = 0% disease present) | 0 (0 = 0% disease present) | 0 (0 = 0% disease present) | 0+ (0 = 0% disease present) | – | – | – | – | – | – | – | –
9 | COC=C(C(=O)OC)c1ccccc1COC(=O)Nc1ccc(F)c(Cl)c1 [104 (1)] | 90 (90 and 94 = 60.1-100% disease present) | 90 (90 and 94 = 60.1-100% disease present) | 90 (90 and 94 = 60.1-100% disease present) | 60 (60 = 30.1-60% disease present) | 90 (90 and 94 = 60.1-100% disease present) | 90 (90 and 94 = 60.1-100% disease present) | 90 (90 and 94 = 60.1-100% disease present) | 90+ (90 and 94 = 60.1-100% disease present) | – | – | – | – | – | – | – | –
10 | COC=C(C(=O)OC)c1ccccc1COC(=O)N(C)c1ccc(F)c(F)c1 [28 (2)] | 0 (0 = 0% disease present) | 10 (10 = 5.1-10% disease present) | 0 (0 = 0% disease present) | 0 (0 = 0% disease present) | 0 (0 = 0% disease present) | 0 (0 = 0% disease present) | 0 (0 = 0% disease present) | 0+ (0 = 0% disease present) | – | – | – | – | – | – | – | –
11 | COC=C(C(=O)OC)c1ccccc1OC(=O)N(C)c1ccc(F)cc1F [24 (18)] | – | – | – | – | – | – | – | – | 90 (90 and 94 = 60.1-100% disease present) | 90 (90 and 94 = 60.1-100% disease present) | 90 (90 and 94 = 60.1-100% disease present) | 90 (90 and 94 = 60.1-100% disease present) | 90 (90 and 94 = 60.1-100% disease present) | 90 (90 and 94 = 60.1-100% disease present) | 60 (60 = 30.1-60% disease present) | 90+ (90 and 94 = 60.1-100% disease present)

— patent US6465457B1 (priority 1991, dated 2002)
